Test results: US20120264735A1 (priority 2009, published 2012)
pIC50: −log10 of the molar value.

What follows are molecules tested against T1, c-Met kinase (recombinant c-Met) (Homo sapiens, UniProt P08581) (assay: In vitro kinase assay I (homogeneous time-resolved fluorescence tyrosine kinase assay)).
T1 construct: 0.27 nM recombinant c-Met
Format: biochemical
Method in brief: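 Biotinylated peptide (0.5 μM) phosphorylated by 0.2 nM recombinant c-Met with 50 μM MgATP, 60 min at room temperature, pH 7.4, 5% DMSO. EDTA stop; HTRF read with Eu-anti-phosphotyrosine antibody and streptavidin-APC. IC50 from 4-parameter logistic fit.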

T1 sequence (P08581 25-1390): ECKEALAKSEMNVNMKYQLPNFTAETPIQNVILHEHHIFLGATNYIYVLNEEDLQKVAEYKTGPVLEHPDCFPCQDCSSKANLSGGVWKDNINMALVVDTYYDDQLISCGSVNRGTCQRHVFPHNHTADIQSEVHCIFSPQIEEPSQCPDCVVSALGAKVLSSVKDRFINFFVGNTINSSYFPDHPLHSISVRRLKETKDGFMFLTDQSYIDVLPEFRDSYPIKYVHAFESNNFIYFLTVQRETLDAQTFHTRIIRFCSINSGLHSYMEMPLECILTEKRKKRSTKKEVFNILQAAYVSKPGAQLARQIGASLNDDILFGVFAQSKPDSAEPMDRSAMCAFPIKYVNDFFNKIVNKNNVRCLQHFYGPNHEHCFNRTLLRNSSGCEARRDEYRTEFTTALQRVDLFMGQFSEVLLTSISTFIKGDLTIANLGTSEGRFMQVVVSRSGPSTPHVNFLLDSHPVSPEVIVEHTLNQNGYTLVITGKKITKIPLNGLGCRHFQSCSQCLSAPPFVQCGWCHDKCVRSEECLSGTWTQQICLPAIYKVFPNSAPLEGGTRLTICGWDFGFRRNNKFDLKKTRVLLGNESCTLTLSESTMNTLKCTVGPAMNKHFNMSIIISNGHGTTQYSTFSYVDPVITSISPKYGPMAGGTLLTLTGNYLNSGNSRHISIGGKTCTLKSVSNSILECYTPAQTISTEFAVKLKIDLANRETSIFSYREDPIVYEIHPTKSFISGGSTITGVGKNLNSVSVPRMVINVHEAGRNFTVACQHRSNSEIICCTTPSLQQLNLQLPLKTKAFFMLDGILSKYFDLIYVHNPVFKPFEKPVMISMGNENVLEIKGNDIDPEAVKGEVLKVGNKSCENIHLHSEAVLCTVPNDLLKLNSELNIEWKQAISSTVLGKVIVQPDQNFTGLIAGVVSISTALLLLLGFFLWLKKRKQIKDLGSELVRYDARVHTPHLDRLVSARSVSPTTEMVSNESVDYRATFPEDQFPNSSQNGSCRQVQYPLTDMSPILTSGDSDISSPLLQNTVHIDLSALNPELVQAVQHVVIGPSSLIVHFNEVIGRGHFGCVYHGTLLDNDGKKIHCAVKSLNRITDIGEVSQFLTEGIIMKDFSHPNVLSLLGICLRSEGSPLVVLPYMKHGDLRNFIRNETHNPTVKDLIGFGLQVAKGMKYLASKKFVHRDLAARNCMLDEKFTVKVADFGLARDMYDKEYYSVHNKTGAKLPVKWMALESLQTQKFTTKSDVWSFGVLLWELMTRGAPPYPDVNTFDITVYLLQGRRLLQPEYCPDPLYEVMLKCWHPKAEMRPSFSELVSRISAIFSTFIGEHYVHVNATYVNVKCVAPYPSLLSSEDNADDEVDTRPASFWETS

Row | SMILES | pIC50
1 | CC(C)COC(=O)Nc1cccc(Cc2nn(-c3cccc(-c4ccncc4)c3)ccc2=O)c1 [Example 730, 2-methylpropyl (3-{[4-oxo-1-(3-pyridin-4-ylphenyl)-1,4-dihydropyridazin-3-yl]methyl}phenyl) carbarnate] | 6.00 to 7.00
2 | Cn1cc(-n2ccc(=O)c(Cc3cccc4[nH]ncc34)n2)cn1 [Example 50, 3-(1H-indazol-4-ylmethyl)-1-(1-methyl-1H-pyrazol-4-yl)pyridazin-4(1H)-one] | 5.52 to 6.00
3 | COc1cnc(-c2cccc(Cc3nn(-c4cncc(C)c4)ccc3=O)c2)nc1 [Example 37, 3-[3-(5-methoxypyrimidin-2-yl)benzyl]-1-(5-methylpyridin-3-yl)pyridazin-4(1H)-one] | > 7.00
4 | C[C@H](O)[C@H](C)Oc1cnc(-c2cccc(Cc3nn(-c4cnn(C)c4)ccc3=O)c2)nc1 (single isomer, unassigned) [Example 375] | > 7.00
5 | CN1CCC(COc2cnc(-c3cccc(Cc4nn(-c5cc(F)cc(F)c5)ccc4=O)c3)nc2)CC1 [Example 173, 1-(3,5-difluorophenyl)-3-(3-{5-[(1-methylpiperidin-4-yl)methoxy]pyrimidin-2-yl}benzyl)pyridazin-4(1H)-one] | > 7.00
6 | CN1CCN(CCOC(=O)Nc2cccc(Cc3nn(-c4cnn(C)c4)ccc3=O)c2)CC1 [Example 530, 2-(4-methylpiperazin-1-yl)ethyl (3-{[1-(1-methyl-1H-pyrazol-4-yl)-4-oxo-1,4-dihydropyridazin-3-yl]methyl}phenyl)carbamate] | > 7.00
7 | CCn1cc(-n2ccc(=O)c(Cc3cccc(-c4ncc(OCc5ccccc5)cn4)c3)n2)cn1 [Example 71, 3-{3-[5-(benzyloxy)pyrimidin-2-yl]benzyl}-1-(1-ethyl-1H-pyrazol-4-yl)pyridazin-4(1H)-one] | > 7.00
8 | CCn1cc(-n2ccc(=O)c(C(C)c3cccc(-c4ncn(CC)n4)c3)n2)cn1 (single isomer, unassigned) [Example 687, 1-(1-ethyl-1H-pyrazol-4-yl)-3-{(1R or S)-1-[3-(1-ethyl-1H-1,2,4-triazol-3-yl)phenyl]ethyl} pyridazin-4(1H)-one] | > 7.00
9 | CCOC(=O)Nc1cccc(C(F)c2nn(-c3ccc(Cl)cc3)ccc2=O)c1 (racemic) [Example 641, rac-Ethyl(3-{[1-(4-chlorophenyl)-4-oxo-1,4-dihydropyridazin-3-yl](fluoro)methyl}phenyl)carbamate] | 6.00 to 7.00
10 | [2H]C([2H])([2H])C([2H])([2H])Oc1cnc(-c2cccc(Cc3nn(-c4cnn(C)c4)ccc3=O)c2)nc1 [Example 275, 3-[3-(5-ethoxypyrimidin-2-yl)benzyl]-1-(1-methyl-1H-pyrazol-4-yl)pyridazin-4(1H)-one-d5] | > 7.00
11 | Cn1cc(-n2ccc(=O)c(Cc3cccc(-c4ncn(CCc5ccccc5)n4)c3)n2)cn1 [Example 715, 1-(1-methyl-1H-pyrazol-4-yl)-3-{3-[1-(2-phenylethyl)-1H-1,2,4-triazol-3-yl]benzyl}pyridazin-4(1H)-one] | 6.00 to 7.00
12 | CCOC(=O)Nc1cccc(Cc2nn(-c3cccc(O)c3)ccc2=O)c1 [Example 646, Ethyl(3-{[1-(3-hydroxyphenyl)-4-oxo-1,4-dihydropyridazin-3-yl]methyl}phenyl)carbamate] | > 7.00
13 | CCCN(C)c1cnc(-c2cccc(Cc3nn(-c4cnn(C)c4)ccc3=O)c2)nc1 [Example 456, 3-(3-{5-[Methyl(propyl)amino]pyrimidin-2-yl}benzyl)-1-(1-methyl-1H-pyrazol-4-yl)pyridazin-4(1H)-one] | > 7.00
14 | CCOc1cnc(-c2cccc(Cc3nn(-c4cnn(C5CN(C(=O)OC(C)(C)C)C5)c4)ccc3=O)c2)nc1 [Example 661, tert-butyl 3-(4-{3-[3-(5-ethoxypyrimidin-2-yl)benzyl]-4-oxopyridazin-1(4H)-yl}-1H-pyrazol-1-yl)acetidine-1-carboxylate] | > 7.00
15 | COCCOc1cnc(-c2cccc(Cc3nn(-c4cc(F)c(F)c(F)c4)ccc3=O)c2)nc1 [Example 318, 3-{3-[5-(2-methoxyethoxy)pyrimidin-2-yl]benzyl}-1-(3,4,5-trifluorophenyl)pyridazin-4(1H)-one] | > 7.00
16 | Cn1cc(-n2ccc(=O)c(Cc3cccc(-c4ncc(N5CCC(F)(F)C5)cn4)c3)n2)cn1 [Example 447, 3-{3-[5-(3,3-difluoropyrrolidin-1-yl)pyrimidin-2-yl]benzyl}-1-(1-methyl-1H-pyrazol-4-yl)pyridazin-4(1H)-one] | > 7.00
17 | Cn1cc(-n2ccc(=O)c(Cc3cccc(-c4ncc(C(C)(C)O)cn4)c3)n2)cn1 [Example 167, 3-{3-[5-(1-hydroxy-1-methylethyl)pyrimidin-2-yl]benzyl}-1-(1-methyl-1H-pyrazol-4-yl)pyridazin-4(1H)-one] | > 7.00
18 | Cn1cc(-n2ccc(=O)c(Cc3cccc(-c4noc(CN5CCOCC5)n4)c3)n2)cn1 [Example 743, 1-(1-methyl-1H-pyrazol-4-yl)-3{3-[5-(morpholin-4-ylmethyl)-1,2,4-oxadiazol-3-yl]benzyl}pyridazin-4(1H)-one] | 6.00 to 7.00
19 | CC(C)c1nc(COc2cnc(-c3cccc(Cc4nn(-c5cnn(C)c5)ccc4=O)c3)nc2)no1 [Example 283, 3-[3-(5-{[5-(1-methylethyl)-1,2,4-oxadiazol-3-yl]methoxy}pyrimidin-2-yl)benzyl]-1-(1-methyl-1H-pyrazol-4-yl)pyridazin-4(1H)-one] | > 7.00

Continued, values first:

Row | pIC50 | SMILES
20 | > 7.00 | N#Cc1cccc(-n2ccc(=O)c(Cc3cccc(NC(=O)OCCn4cncn4)c3)n2)c1 [Example 587, 2-(1H-1,2,4-triazol-1-yl)ethyl (3-{[1-(3-cyanophenyl)-4-oxo-1,4-dihydropyridazin-3-yl]methyl}phenyl)carbamate]
21 | > 7.00 | CC(c1cccc(-c2ncc(-c3cnn(C)c3)cn2)c1)c1nn(-c2cnn(C)c2)ccc1=O (single isomer, unassigned) [Example 233, 1-(1-methyl-1H-pyrazol-4-yl)-3-[(1R or S)-1-{3-[5-(1-methyl-1H-pyrazol-4-yl)pyrimidin-2-yl]phenyl}ethyl]pyridazin-4(1H)-one]
22 | > 7.00 | CCn1cc(-n2ccc(=O)c(C(C)c3cccc(-c4ncc(OCC(F)F)cn4)c3)n2)cn1 (single isomer, unassigned) [Example 294, 3-[(1R or S)-1-{3-[5-(2,2-difluoroethoxy)pyrimidin-2-yl]phenyl}ethyl]-1-(1-ethyl-1H-pyrazol-4-yl)pyridazin-4(1H)-one]
23 | > 7.00 | Cn1cc(-n2ccc(=O)c(Cc3cccc(-c4ncc(CCc5ccccc5)cn4)c3)n2)cn1 [Example 397, 1-(1-methyl-1H-pyrazol-4-yl)-3-{3-[5-(2-phenylethyl)pyrimidin-2-yl]benzyl}pyridazin-4(1H)-one]
24 | > 7.00 | Cn1cc(-n2ccc(=O)c(Cc3cccc(-c4ncc(OCC5COCCO5)cn4)c3)n2)cn1 (single isomer, unassigned) [Example 347, 3-(3-{5-[(2R or-S)-1,4-dioxan-2-ylmethoxy]pyrimidin-2-yl}benzyl)-1-(1-methyl-1H-pyrazol-4-yl)pyridazin-4(1H)-one]
25 | > 7.00 | Cn1cc(-n2ccc(=O)c(Cc3cccc(-c4ncc(-c5cccnc5)cn4)c3)n2)cn1 [Example 412, 1-(1-methyl-1H-pyrazol-4-yl)-3-[3-(5-pyridin-3-ylpyrimidin-2-yl)benzyl]pyridazin-4(1H)-one]
26 | > 7.00 | O=C(Nc1cccc(Cc2nn(-c3cc(F)cc(F)c3)ccc2=O)c1)OCC1CCCOC1 (racemic) [Example 607, rac-tetrahydro-2H-pyran-3-ylmethyl (3-{[1-(3,5-difluorophenyl)-4-oxo-1,4-dihydropyridazin-3-yl]methyl}phenyl)carbamate]
27 | > 7.00 | CCOC(=O)Nc1cccc(Cc2nn(-c3ccc(Br)cc3)ccc2=O)c1 [Example 18, ethyl (3-{[1-(4-bromophenyl)-4-oxo-1,4-dihydropyridazin-3-yl]methyl}phenyl)carbamate]
28 | > 7.00 | Cn1cc(-n2ccc(=O)c(Cc3cccc(-c4ncc(-c5ccco5)cn4)c3)n2)cn1 [Example 404, 3-{3-[5-(furan-2-yl)pyrimidin-2-yl]benzyl}-1-(1-methyl-1H-pyrazol-4-yl)pyridazin-4(1H)-one]
29 | > 7.00 | O=c1ccn(-c2ccc(F)c(F)c2)nc1Cc1cccc(-c2ncc(OCc3ccccc3)cn2)c1 [Example 124, 3-{3-[5-(benzyloxy)pyrimidin-2-yl]benzyl}-1-(3,4-difluorophenyl)pyridazin-4(1H)-one]
30 | > 7.00 | O=C(Nc1cccc(Cc2nn(-c3cc(F)cc(F)c3)ccc2=O)c1)OCCN1CCOCC1 [Example 523, 2-morpholin-4-ylethyl (3-{[1-(3,5-difluorophenyl)-4-oxo-1,4-dihydropyridazin-3-yl]methyl}phenyl)carbamate]
31 | > 7.00 | Cn1cc(-n2ccc(=O)c(Cc3cccc(-c4ncc(OCC(F)(F)CN5CCOCC5)cn4)c3)n2)cn1 [Example 259, 3-(3-{5-[2,2-Difluoro-3-(morpholin-4-yl)propoxy]pyrimidin-2-yl}benzyl)-1-(1-methyl-1H-pyrazol-4-yl)pyridazin-4(1H)-one]
32 | > 7.00 | CC(c1cccc(-c2ncc(Br)cn2)c1)c1nn(-c2cnn(C)c2)ccc1=O (single isomer, unassigned) [Example 242, 3-{(1R or S)-1-[3-(5-bromopyrimidin-2-yl)phenyl]ethyl}-1-(1-methyl-1H-pyrazol-4-yl)pyridazin-4(1H)-one]
33 | > 7.00 | Cn1cc(-n2ccc(=O)c(Cc3cccc(NC(=O)OCCC4CCNCC4)c3)n2)cn1 [Example 624, 2-piperidin-4-ylethyl (3-{[1-(1-methyl-1H-pyrazol-4-yl)-4-oxo-1,4-dihydropyridazin-3-yl]methyl}phenyl)carbamate]
34 | > 7.00 | CCn1cc(-n2ccc(=O)c(Cc3cccc(-c4ncc(OCC5CCNCC5)cn4)c3)n2)cn1 [Example 336, 1-(1-ethyl-1H-pyrazol-4-yl)-3-{3-[5-(piperidin-4-ylmethoxy)pyrimidin-2-yl]benzyl}pyridazin-4(1H)-one]
